From ChEMBL document CHEMBL1201862, “PubChem BioAssay data set” (2004)
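Briefly, cells in 96-well plates were exposed to five compound concentrations for 48 h, and endpoints were estimated by linear interpolation. The concentration for 50% growth inhibition is given as GI50.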 The source made the active and inactive calls. Rule as the data show it: active = GI50 up to about 1.1 µM and inactive = higher.

How the values were obtained:
Assay in all cases: DTP human tumour cell line panel, 48 h
[1] = test system: EKVX
[2] = test system: MDA-MB-435
[3] = test system: ACHN
[4] = test system: SN12C
[5] = test system: HOP-62
[6] = test system: COLO 205
[7] = test system: A549
[8] = test system: OVCAR-8
[9] = test system: CCRF-CEM
[10] = test system: K562
[11] = test system: NCI-H522
[12] = test system: DU-145
[13] = test system: CAKI-1
[14] = test system: UO-31
[15] = test system: RPMI-8226
[16] = test system: MCF7
[17] = test system: SF-539
[18] = test system: PC-3
[19] = test system: HCT-15
[20] = test system: NCI-H460

COC(=O)[C@H](NC(=O)OC(C)(C)C)[C@H]1COC(C)(C)O1
GI50 [1]: > 100 µM (inactive)
GI50 [2]: > 100 µM (inactive)
GI50 [3]: > 100 µM (inactive)
GI50 [4]: > 100 µM (inactive)
GI50 [5]: > 100 µM (inactive)
GI50 [6]: > 100 µM (inactive)
GI50 [7]: > 100 µM (inactive)
GI50 [8]: > 100 µM (inactive)
GI50 [9]: > 100 µM (inactive)
GI50 [10]: > 100 µM (inactive)
GI50 [11]: > 100 µM (inactive)
GI50 [12]: > 100 µM (inactive)
GI50 [13]: > 100 µM (inactive)
GI50 [14]: > 100 µM (inactive)
GI50 [15]: > 100 µM (inactive)
GI50 [16]: > 100 µM (inactive)
GI50 [17]: > 100 µM (inactive)
GI50 [18]: > 100 µM (inactive)
GI50 [19]: > 100 µM

CC(=O)O[C@@H]1[C@H](OC2CCCCC2(c2ccccc2)c2ccccc2)O[N+]([O-])=CC12CCCCC2 (stereo partly specified)
GI50 [1]: 17.9 µM (inactive)
GI50 [2]: 15.6 µM (inactive)
GI50 [3]: 17.6 µM (inactive)
GI50 [4]: 19.6 µM (inactive)
GI50 [6]: 16.4 µM (inactive)
GI50 [7]: 17.7 µM (inactive)
GI50 [8]: 25.5 µM (inactive)
GI50 [9]: 0.17 µM (active)
GI50 [10]: 54.2 µM (inactive)
GI50 [11]: 18.6 µM (inactive)
GI50 [12]: 18.1 µM (inactive)
GI50 [20]: 18.2 µM (inactive)
GI50 [13]: 14.4 µM (inactive)
GI50 [14]: 17.5 µM (inactive)
GI50 [15]: 33 µM (inactive)
GI50 [16]: 18.2 µM (inactive)
GI50 [17]: 20 µM (inactive)
GI50 [18]: 10.8 µM (inactive)
GI50 [19]: 16 µM

Cc1ccc(C2SCC(=O)N2c2ccc(-n3c(-c4ccccc4)nc4ccccc4c3=O)cc2)cc1 (stereo unspecified)
GI50 [2]: 21.1 µM (inactive)
GI50 [3]: 16.6 µM (inactive)
GI50 [4]: 37.8 µM (inactive)
GI50 [5]: 12.9 µM (inactive)
GI50 [6]: 30.1 µM (inactive)
GI50 [7]: 25.1 µM (inactive)
GI50 [8]: 16.2 µM (inactive)
GI50 [9]: 8.18 µM (inactive)
GI50 [10]: 7.26 µM (inactive)
GI50 [11]: 13.5 µM (inactive)
GI50 [12]: 31 µM (inactive)
GI50 [20]: 9.42 µM (inactive)
GI50 [13]: 30.1 µM (inactive)
GI50 [14]: 16.2 µM (inactive)
GI50 [15]: 13.7 µM (inactive)
GI50 [16]: 22.6 µM (inactive)
GI50 [17]: 12.4 µM (inactive)
GI50 [18]: 12.7 µM (inactive)
GI50 [19]: 6.65 µM

CC(=O)Oc1cc(-c2oc3cc(OC(C)=O)c(C4OC(CO)C(O)C(O)C4O)c(OC(C)=O)c3c(=O)c2O)c(OC(C)=O)cc1O (stereo unspecified)
GI50 [1]: > 100 µM (inactive)
GI50 [2]: > 100 µM (inactive)
GI50 [3]: > 100 µM (inactive)
GI50 [4]: > 100 µM (inactive)
GI50 [5]: > 100 µM (inactive)
GI50 [6]: > 100 µM (inactive)
GI50 [7]: > 100 µM (inactive)
GI50 [8]: > 100 µM (inactive)
GI50 [9]: 89.9 µM (inactive)
GI50 [10]: > 100 µM (inactive)
GI50 [11]: 72.6 µM (inactive)
GI50 [12]: > 100 µM (inactive)
GI50 [20]: > 100 µM (inactive)
GI50 [13]: > 100 µM (inactive)
GI50 [14]: > 100 µM (inactive)
GI50 [15]: 56.4 µM (inactive)
GI50 [16]: > 100 µM (inactive)
GI50 [18]: > 100 µM (inactive)
GI50 [19]: > 100 µM

CN(Cc1nc2c(N)nc(N)nc2nc1N)c1ccc(C(=O)NC(CCC(=O)O)C(=O)O)cc1 (stereo unspecified)
GI50 [2]: 0.0277 µM (active)
GI50 [3]: 0.041 µM (active)
GI50 [4]: 0.365 µM (active)
GI50 [5]: 0.231 µM (active)
GI50 [6]: > 100 µM (inactive)
GI50 [8]: 0.0413 µM (active)
GI50 [9]: < 0.01 µM (active)
GI50 [11]: > 33.6 µM (inactive)
GI50 [12]: 0.254 µM (active)
GI50 [20]: < 0.0122 µM (active)
GI50 [13]: 0.0322 µM (active)
GI50 [14]: 0.561 µM (active)
GI50 [15]: > 75.2 µM (inactive)
GI50 [16]: 0.0596 µM (active)
GI50 [17]: 0.0378 µM (active)
GI50 [18]: < 0.01 µM (active)
GI50 [19]: 0.0708 µM

COc1c(Cl)ccc(Cl)c1-c1nnc(-c2c(Cl)c(Cl)c(Cl)c(Cl)c2-c2nc3cc(C(=O)c4ccccc4)ccc3[nH]2)o1
GI50 [1]: 45.4 µM (inactive)
GI50 [2]: 21.4 µM (inactive)
GI50 [3]: > 100 µM (inactive)
GI50 [4]: 64.7 µM (inactive)
GI50 [5]: 43.5 µM (inactive)
GI50 [6]: 21.9 µM (inactive)
GI50 [7]: 45.2 µM (inactive)
GI50 [8]: > 100 µM (inactive)
GI50 [9]: 24.9 µM (inactive)
GI50 [10]: 28.9 µM (inactive)
GI50 [11]: 22.9 µM (inactive)
GI50 [12]: > 100 µM (inactive)
GI50 [13]: > 100 µM (inactive)
GI50 [14]: 75.7 µM (inactive)
GI50 [15]: 23.8 µM (inactive)
GI50 [16]: 31.6 µM (inactive)
GI50 [17]: 22.1 µM (inactive)
GI50 [18]: 46 µM (inactive)
GI50 [19]: 35.7 µM

COC12c3ccccc3-c3ccccc3C1[C@H]1C(=O)OC(=O)[C@H]12 (stereo partly specified)
GI50 [1]: > 10 µM (inactive)
GI50 [2]: > 10 µM (inactive)
GI50 [3]: > 10 µM (inactive)
GI50 [4]: > 10 µM (inactive)
GI50 [5]: > 10 µM (inactive)
GI50 [6]: > 10 µM (inactive)
GI50 [8]: > 10 µM (inactive)
GI50 [9]: > 10 µM (inactive)
GI50 [10]: > 10 µM (inactive)
GI50 [11]: > 10 µM (inactive)
GI50 [12]: > 10 µM (inactive)
GI50 [20]: > 10 µM (inactive)
GI50 [13]: > 10 µM (inactive)
GI50 [14]: > 10 µM (inactive)
GI50 [15]: > 10 µM (inactive)
GI50 [16]: > 10 µM (inactive)
GI50 [17]: > 10 µM (inactive)
GI50 [18]: > 10 µM (inactive)
GI50 [19]: > 10 µM

O=[N+]([O-])c1nccn1CCCNc1c2ccccc2[n+]([O-])c2ccccc12
GI50 [1]: > 100 µM (inactive)
GI50 [2]: > 100 µM (inactive)
GI50 [3]: > 100 µM (inactive)
GI50 [4]: > 100 µM (inactive)
GI50 [5]: > 100 µM (inactive)
GI50 [6]: 18.2 µM (inactive)
GI50 [7]: > 100 µM (inactive)
GI50 [8]: > 100 µM (inactive)
GI50 [9]: > 100 µM (inactive)
GI50 [10]: > 100 µM (inactive)
GI50 [11]: > 100 µM (inactive)
GI50 [12]: > 100 µM (inactive)
GI50 [20]: 51.3 µM (inactive)
GI50 [13]: > 100 µM (inactive)
GI50 [14]: > 100 µM (inactive)
GI50 [15]: > 100 µM (inactive)
GI50 [16]: > 100 µM (inactive)
GI50 [17]: > 100 µM (inactive)
GI50 [18]: > 100 µM (inactive)
GI50 [19]: > 100 µM
